Earlier results in patent US20160249623A1, “METHODS FOR DISPENSING SALT-FREE HYPOCHLOROUS ACID FOR HAND-SANITIZING” (priority 2015, published 2016).

Key:
[1] = tested on: all viruses, bacteria, mold and spores
[2] = tested on: HIV (Human Immunodeficiency Virus); conditions: the longest kill-time

## OCl [HOCI, hypochlorous acid]
[1]
  kill-time: within seconds
[2]
  kill-time: less than 1 minute
